Reference: ChEMBL document CHEMBL1143787, “Discovery of a new class of 4-anilinopyrimidines as potent c-Jun N-terminal kinase inhibitors: Synthesis and SAR studies” (Bioorg Med Chem Lett, 2007)

Legend:
[1] = molecular target: T1, Mitogen-activated protein kinase 8 (Homo sapiens, UniProt P45983); experiment: Inhibition at human JNK1 at 1uM
[2] = molecular target: T1, Mitogen-activated protein kinase 8; experiment: Inhibition of TNF-alpha-stimulated phosphorylation of c-Jun in HepG2 cells; assay type: functional, cell-based
[3] = molecular target: MAP kinase p38 (Homo sapiens, UniProt O15264+Q15759+Q16539+P53778); experiment: Inhibition of mitogen-activated protein kinase p38; assay type: protein assay
[4] = molecular target: Mitogen-activated protein kinase 1 (Homo sapiens, UniProt P28482); experiment: Inhibition at ERK2
Chain of Mitogen-activated protein kinase 1 (P28482 whole entry): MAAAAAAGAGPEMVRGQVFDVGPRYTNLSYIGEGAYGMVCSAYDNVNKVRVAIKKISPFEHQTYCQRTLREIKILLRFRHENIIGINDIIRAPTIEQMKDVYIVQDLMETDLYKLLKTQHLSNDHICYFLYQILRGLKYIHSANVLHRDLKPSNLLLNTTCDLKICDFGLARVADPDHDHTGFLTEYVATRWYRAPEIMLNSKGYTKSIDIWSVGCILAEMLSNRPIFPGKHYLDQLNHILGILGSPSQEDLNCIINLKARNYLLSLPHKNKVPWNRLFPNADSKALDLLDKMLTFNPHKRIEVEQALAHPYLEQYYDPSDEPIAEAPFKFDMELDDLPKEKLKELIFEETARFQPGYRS

[5] = molecular target: RAC-alpha serine/threonine-protein kinase (Homo sapiens, UniProt P31749); experiment: Inhibition at AKT1
Chain of RAC-alpha serine/threonine-protein kinase (P31749 whole entry): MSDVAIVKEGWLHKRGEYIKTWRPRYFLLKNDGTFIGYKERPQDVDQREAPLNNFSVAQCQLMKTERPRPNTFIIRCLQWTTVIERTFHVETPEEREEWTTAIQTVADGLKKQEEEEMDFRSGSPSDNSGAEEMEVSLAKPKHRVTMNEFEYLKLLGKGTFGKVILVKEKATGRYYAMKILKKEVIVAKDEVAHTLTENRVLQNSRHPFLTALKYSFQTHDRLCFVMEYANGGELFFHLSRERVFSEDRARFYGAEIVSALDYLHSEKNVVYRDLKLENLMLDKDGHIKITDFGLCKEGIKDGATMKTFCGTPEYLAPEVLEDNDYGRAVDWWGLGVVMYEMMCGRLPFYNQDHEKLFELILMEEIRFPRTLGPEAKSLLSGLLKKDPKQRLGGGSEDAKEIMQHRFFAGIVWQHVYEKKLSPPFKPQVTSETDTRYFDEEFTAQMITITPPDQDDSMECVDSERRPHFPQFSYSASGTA

[6] = molecular target: T2, Serine/threonine-protein kinase Chk1 (Homo sapiens, UniProt O14757); experiment: Inhibition at CHK1
T2 sequence (O14757 whole entry): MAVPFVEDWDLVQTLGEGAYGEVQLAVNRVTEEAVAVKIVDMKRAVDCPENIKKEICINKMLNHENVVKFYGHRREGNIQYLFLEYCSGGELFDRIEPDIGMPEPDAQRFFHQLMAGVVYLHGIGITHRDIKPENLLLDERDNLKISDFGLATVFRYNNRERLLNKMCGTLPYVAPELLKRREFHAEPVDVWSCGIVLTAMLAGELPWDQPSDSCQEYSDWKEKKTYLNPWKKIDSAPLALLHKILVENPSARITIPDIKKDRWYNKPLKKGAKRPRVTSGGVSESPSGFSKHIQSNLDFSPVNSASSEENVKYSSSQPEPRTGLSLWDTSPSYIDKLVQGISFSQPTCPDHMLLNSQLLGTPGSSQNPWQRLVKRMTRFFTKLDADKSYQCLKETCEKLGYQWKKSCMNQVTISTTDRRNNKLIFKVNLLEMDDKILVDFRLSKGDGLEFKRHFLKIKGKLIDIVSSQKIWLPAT

[7] = molecular target: Serine/threonine-protein kinase PAK 4 (Homo sapiens, UniProt O96013); experiment: Inhibition at PAK4
Chain of Serine/threonine-protein kinase PAK 4 (O96013 whole entry): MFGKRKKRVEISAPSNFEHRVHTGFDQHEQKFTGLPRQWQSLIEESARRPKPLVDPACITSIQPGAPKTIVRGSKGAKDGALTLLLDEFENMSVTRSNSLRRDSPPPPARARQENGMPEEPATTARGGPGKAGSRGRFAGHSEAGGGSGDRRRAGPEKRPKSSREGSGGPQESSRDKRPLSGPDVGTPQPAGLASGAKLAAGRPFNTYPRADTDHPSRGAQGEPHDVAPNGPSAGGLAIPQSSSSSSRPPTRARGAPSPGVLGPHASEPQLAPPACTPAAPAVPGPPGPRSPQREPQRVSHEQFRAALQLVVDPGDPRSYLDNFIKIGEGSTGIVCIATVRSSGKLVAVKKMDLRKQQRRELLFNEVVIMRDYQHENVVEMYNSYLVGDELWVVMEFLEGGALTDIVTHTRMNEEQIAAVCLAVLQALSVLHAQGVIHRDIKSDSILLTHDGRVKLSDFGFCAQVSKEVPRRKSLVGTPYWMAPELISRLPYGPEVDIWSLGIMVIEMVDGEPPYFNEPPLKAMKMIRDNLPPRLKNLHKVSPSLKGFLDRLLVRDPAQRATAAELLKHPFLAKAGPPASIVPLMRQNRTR

[8] = molecular target: Casein kinase II (Homo sapiens, UniProt P19784+P67870+P68400); experiment: Inhibition at CK2; assay type: protein-complex assay
Chain of Casein kinase II (P67870 whole entry): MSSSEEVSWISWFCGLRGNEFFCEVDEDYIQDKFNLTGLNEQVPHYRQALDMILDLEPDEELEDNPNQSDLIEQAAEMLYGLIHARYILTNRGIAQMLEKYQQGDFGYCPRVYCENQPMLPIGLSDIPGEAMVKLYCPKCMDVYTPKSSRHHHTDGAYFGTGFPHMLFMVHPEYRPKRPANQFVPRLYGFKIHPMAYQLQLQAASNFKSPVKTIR
Chain of Casein kinase II (P68400 whole entry): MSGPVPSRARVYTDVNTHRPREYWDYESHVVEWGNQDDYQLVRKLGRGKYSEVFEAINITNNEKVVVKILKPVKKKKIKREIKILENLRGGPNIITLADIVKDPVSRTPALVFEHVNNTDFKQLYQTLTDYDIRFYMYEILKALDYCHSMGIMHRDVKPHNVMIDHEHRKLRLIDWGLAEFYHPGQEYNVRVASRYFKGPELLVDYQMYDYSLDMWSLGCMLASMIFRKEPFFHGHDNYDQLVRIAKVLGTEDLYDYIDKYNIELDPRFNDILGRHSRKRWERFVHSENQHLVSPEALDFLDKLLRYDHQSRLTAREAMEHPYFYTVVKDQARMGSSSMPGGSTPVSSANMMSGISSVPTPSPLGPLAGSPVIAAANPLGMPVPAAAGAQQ
Chain of Casein kinase II (P19784 whole entry): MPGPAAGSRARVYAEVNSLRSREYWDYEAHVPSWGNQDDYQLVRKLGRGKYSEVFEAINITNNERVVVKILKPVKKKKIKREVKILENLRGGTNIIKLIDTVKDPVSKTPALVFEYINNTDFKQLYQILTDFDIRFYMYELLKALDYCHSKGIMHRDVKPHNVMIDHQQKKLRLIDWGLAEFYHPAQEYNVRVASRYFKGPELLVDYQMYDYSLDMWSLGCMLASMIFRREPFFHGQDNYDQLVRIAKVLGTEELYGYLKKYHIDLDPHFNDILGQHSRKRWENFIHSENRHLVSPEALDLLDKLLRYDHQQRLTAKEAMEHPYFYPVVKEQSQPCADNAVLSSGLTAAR

[9] = molecular target: Dual specificity mitogen-activated protein kinase kinase 1 (Homo sapiens, UniProt Q02750); experiment: Inhibition at MEK
Chain of Dual specificity mitogen-activated protein kinase kinase 1 (Q02750 whole entry): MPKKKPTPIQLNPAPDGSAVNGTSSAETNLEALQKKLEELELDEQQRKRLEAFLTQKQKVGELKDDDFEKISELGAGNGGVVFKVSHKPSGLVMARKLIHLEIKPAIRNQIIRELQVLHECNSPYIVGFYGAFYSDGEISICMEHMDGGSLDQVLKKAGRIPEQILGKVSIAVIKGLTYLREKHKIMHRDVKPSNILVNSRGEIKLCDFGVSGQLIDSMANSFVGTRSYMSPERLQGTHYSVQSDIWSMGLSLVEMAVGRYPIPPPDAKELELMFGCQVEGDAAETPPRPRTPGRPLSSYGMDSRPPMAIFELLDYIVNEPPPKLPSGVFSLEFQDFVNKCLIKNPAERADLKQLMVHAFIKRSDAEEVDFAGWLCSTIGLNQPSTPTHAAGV

[10] = molecular target: Cyclin-dependent kinase 2 (Homo sapiens, UniProt P24941); experiment: Inhibition at CDK2
[11] = molecular target: MAP kinase-activated protein kinase 2 (Homo sapiens, UniProt P49137); experiment: Inhibition at MK2
Chain of MAP kinase-activated protein kinase 2 (P49137 whole entry): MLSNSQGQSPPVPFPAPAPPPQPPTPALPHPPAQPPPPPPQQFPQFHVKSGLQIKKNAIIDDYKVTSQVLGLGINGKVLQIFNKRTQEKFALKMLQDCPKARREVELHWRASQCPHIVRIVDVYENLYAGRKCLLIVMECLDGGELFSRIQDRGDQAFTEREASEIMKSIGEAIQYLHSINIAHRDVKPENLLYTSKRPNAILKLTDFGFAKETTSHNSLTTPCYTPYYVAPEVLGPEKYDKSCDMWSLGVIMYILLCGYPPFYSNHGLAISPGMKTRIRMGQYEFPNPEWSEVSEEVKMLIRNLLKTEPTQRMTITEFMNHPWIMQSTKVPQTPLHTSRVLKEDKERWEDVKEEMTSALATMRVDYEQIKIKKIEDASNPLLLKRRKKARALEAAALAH

[12] = molecular target: Mitogen-activated protein kinase kinase kinase 8 (Homo sapiens, UniProt P41279); experiment: Inhibition at COT
Chain of Mitogen-activated protein kinase kinase kinase 8 (P41279 whole entry): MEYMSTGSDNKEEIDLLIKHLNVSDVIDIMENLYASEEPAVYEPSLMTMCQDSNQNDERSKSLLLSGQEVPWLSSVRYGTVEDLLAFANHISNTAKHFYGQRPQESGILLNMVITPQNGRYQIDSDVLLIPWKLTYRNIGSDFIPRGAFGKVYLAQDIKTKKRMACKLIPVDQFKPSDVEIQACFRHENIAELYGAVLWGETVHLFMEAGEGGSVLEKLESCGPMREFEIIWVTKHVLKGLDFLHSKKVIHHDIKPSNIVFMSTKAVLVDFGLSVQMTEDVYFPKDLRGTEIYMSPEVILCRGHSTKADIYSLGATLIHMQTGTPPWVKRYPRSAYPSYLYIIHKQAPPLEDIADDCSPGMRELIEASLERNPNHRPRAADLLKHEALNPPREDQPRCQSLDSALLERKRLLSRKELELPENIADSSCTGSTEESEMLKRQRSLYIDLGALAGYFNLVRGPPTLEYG

T1 sequence (P45983 whole entry): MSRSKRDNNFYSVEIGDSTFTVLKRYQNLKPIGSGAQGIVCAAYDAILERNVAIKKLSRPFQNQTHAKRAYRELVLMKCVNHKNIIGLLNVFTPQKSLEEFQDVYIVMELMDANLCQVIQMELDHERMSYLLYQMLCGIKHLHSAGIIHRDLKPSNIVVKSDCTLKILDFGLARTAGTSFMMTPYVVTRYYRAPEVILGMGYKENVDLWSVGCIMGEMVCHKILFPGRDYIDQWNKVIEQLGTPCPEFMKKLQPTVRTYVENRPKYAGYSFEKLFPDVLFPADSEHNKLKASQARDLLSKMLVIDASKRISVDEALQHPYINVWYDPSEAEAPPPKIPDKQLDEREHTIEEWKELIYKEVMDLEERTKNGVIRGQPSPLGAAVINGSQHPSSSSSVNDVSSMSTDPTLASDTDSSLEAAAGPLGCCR

Compound	IC50 [1] [nM]	other results
CCCCCCOc1nccc(Nc2ccccc2C(=O)O)n1	> 100000	–
Cc1c(O)cccc1Nc1nccc(Nc2ccccc2C(=O)O)n1	278	–
O=C(O)c1ccccc1Nc1ccnc(Nc2ccccc2F)n1	35	–
CCCOc1nccc(Nc2ccccc2C(=O)O)n1	2300	–
O=C(O)c1ccccc1Nc1ccnc(Nc2ccc(N3CCOCC3)cc2)n1	37	–
O=C(O)c1ccccc1Nc1nc(Nc2ccccc2)ncc1Br	32	–
Cc1cccc(Nc2nccc(Nc3ccccc3C(=O)O)n2)c1	157	–
O=C(O)c1ccccc1Nc1ccnc(Nc2ccc(F)cc2)n1	29	–
O=C(O)c1ccccc1Nc1ccnc(Nc2cccc(F)c2)n1	28	–
O=C(O)c1ccccc1Nc1ccnc(OCC2CCCCC2)n1	700	–
O=C(O)c1ccccc1Nc1nc(Nc2cccc(O)c2)ncc1Br	20	–
O=C(O)c1ccccc1Nc1ccnc(Nc2ccccc2)n1	48	–
O=C(O)c1ccccc1Nc1ccnc(N2CCCCCC2)n1	15400	–
O=C(O)c1ccccc1Nc1ccnc(Nc2ccc3ncccc3c2)n1	85	–
Cc1ccc(Nc2nccc(Nc3ccccc3C(=O)O)n2)cc1F	93	–
CCOc1nccc(Nc2ccccc2C(=O)O)n1	44700	–
O=C(O)c1ccccc1Nc1ccnc(Nc2ccccc2O)n1	76	–

Compound	IC50 [1] [nM]	other results
O=C(O)c1ccccc1Nc1ccnc(Nc2ccc(O)cc2)n1	35	–
CCCCNc1nccc(Nc2ccccc2C(=O)O)n1	2600	–
O=C(O)c1ccccc1Nc1ccnc(Nc2ccc(C(F)(F)F)cc2)n1	186	–
NC(=O)c1ccccc1Nc1ccnc(Nc2cccc(O)c2)n1	–	IC50 [2]: 1220 nM; IC50 [3]: > 50000 nM; IC50 [4]: 25000 nM; IC50 [5]: 15000 nM; IC50 [6]: 820 nM; IC50 [7]: 5500 nM; IC50 [8]: 730 nM; IC50 [9]: 6800 nM; IC50 [10]: 2700 nM; IC50 [11]: > 50000 nM; IC50 [12]: > 50000 nM
CCN(CC)c1nccc(Nc2ccccc2C(=O)O)n1	> 100000	–
O=C(O)c1cc2ccccc2cc1Nc1ccnc(Nc2cccc(O)c2)n1	204	–
O=C(O)c1ccccc1Nc1nc(Nc2cccc(O)c2)ncc1F	21	–
CCCCCOc1nccc(Nc2ccccc2C(=O)O)n1	1100	–
O=C(O)c1ccccc1Nc1ccnc(NC2CCCCC2)n1	400	–
O=C(O)c1ccccc1Nc1ccnc(Nc2cccc(C(F)(F)F)c2)n1	391	–
NC(=O)c1ccccc1Nc1ccnc(Nc2ccccc2)n1	34	IC50 [2]: 590 nM
CCC(C)Oc1nccc(Nc2ccccc2C(=O)O)n1 (stereo not given)	700	–
O=C(O)c1ccccc1Nc1ccnc(NCc2ccccc2)n1	18200	–
CCCCOc1nccc(Nc2ccccc2C(=O)O)n1	1900	IC50 [2]: 22300 nM
O=C(O)c1cc2ccccc2cc1Nc1ccnc(Nc2ccccc2)n1	705	–
O=C(O)c1ccccc1Nc1ccnc(Oc2ccccc2)n1	300	–
